In general, IC50 refers to the concentration that inhibits the measured activity by half.

Here are results for nine compounds from patent publication US12479827B2, “Heteroaromatic carboxamide derivatives as plasma kallikrein inhibitors” (Boehringer Ingelheim International GmbH, priority 2020, dated 2025).

Test [1] deals with T1, PKK in kaolin activated human platelet poor plasma (Homo sapiens, UniProt P03952).
T1 construct: Platelet poor plasma (PPP) obtained from human wholeblood; from tissue
The experiment in a line: Inhibition of PKK in kaolin activated human PPP.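 Further: readout is the rate of fluorogenic substrate cleavage in rfu per min.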 It counts as biochemical. Conditions: 25-750 μg/mL kaolin, global fit, text b200 calls the values IC90. On the procedure: Platelet poor plasma (PPP) obtained from human wholeblood, anticoagulated with Na-Citrate, is incubated with various concentrations of the test compound together with either 25, 75, 250, or 750 μg/mL kaolin in assay buffer for 20 min at 37° C. such that for each kaolin dose used a concentration response is obtained for the test compound.

Test [2] addresses T2, Human PKK (Homo sapiens, UniProt P03952).
T2 construct: purchased Enzyme Research Laboratories
The experiment in a line: Inhibition of PKK using an endpoint assay (human PKK). It is filed as biochemical. Conditions: fluorogenic substrate H-Pro-Phe-Arg-AMC, 1 h room temperature, method names human or rat PKK, table does not say which. In a few lines: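 Human PKK inhibition measured in 100 mM Tris, 150 mM NaCl, pH 7.8, 0.1% BSA, 0.05% Tween20, 1% DMSO. Endpoint format: reaction stopped with PPACK II at 1 μM final, fluorescence read at 355 nm excitation/460 nm emission.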

T1 sequence (P03952 391-638 limits assumed): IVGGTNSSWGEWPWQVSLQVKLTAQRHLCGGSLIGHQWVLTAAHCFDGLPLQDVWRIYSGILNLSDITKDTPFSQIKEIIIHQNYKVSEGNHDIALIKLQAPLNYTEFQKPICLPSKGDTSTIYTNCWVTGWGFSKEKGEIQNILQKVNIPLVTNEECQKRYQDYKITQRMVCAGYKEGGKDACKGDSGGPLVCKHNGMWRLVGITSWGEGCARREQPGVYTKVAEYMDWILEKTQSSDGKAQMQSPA
T1 sequence (P03952 20-390 limits assumed): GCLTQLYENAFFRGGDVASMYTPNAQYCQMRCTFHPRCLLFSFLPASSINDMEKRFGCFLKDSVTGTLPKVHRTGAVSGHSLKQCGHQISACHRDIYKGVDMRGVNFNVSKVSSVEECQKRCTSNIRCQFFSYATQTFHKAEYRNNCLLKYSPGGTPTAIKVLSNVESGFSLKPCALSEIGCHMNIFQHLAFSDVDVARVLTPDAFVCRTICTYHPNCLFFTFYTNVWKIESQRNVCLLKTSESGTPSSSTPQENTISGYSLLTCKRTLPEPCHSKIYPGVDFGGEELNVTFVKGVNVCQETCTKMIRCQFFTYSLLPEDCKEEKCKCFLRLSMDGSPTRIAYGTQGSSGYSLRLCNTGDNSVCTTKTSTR
T2 sequence (P03952 20-390 limits assumed): as above
T2 sequence (P03952 391-638 limits assumed): as the sequence (P03952 391-638 limits assumed) above

`Cn1cnc2c1CC[C@H]2NC(=O)c1cnn(Cc2ccc(N3CC4CC4C3)nc2Br)c1` (stereo partly drawn) [Example 40, 1-[(6-{3-Azabicyclo[3.1.0]hexan-3-yl}-2-bromopyridin-3-yl)methyl]-N-[(4R)-1-methyl-1H,4H,5H,6H-cyclopenta[d]imidazol-4-yl]-1H-pyrazole-4-carboxamide]: the IC50 turned out to be 543 nM in test [1] and 1.2 nM in test [2].
Taken in the same sequence, the figures for `Cn1cnc2c1CC[C@H]2NC(=O)c1cnn(Cc2ccc(N3CC4C(C3)C4(F)F)cn2)c1` (stereo partly drawn) [Example 41, 1-[(5-{6,6-Difluoro-3-azabicyclo[3.1.0]hexan-3-yl}pyridin-2-yl)methyl]-N-[(4R)-1-methyl-1H,4H,5H,6H-cyclopenta[d]imidazol-4-yl]-1H-pyrazole-4-carboxamide] were 488 nM and 3.4 nM.
Taken in the same sequence, the figures for `Cn1cnc2c1CC[C@H]2NC(=O)c1cnn(Cc2ccc(N3CC4CC4C3)nc2C2(C#N)CC2)c1` (stereo partly drawn) [Example 42, 1-[(6-{3-Azabicyclo[3.1.0]hexan-3-yl}-2-(1-cyanocyclopro-pyl)-pyridin-3-yl)methyl]-N-[(4R)-1-methyl-1H,4H,5H,6H-cyclopenta[d]imidazol-4-yl]-1H-pyrazole-4-carboxamide] were 195 nM and 0.6 nM.
For `Cn1cnc2c1CC[C@H]2NC(=O)c1cnn(Cc2ccc(N3CC4CC4C3)nc2C(F)F)c1` (stereo partly drawn) [Example 43, 1-[(6-{3-Azabicyclo[3.1.0]hexan-3-yl}-2-(difluoromethyl)-pyridin-3-yl)methyl]-N-[(4R)-1-methyl-1H,4H,5H,6H-cyclopenta[d]imidazol-4-yl]-1H-pyrazole-4-carboxamide], the IC50 in test [1] came to 308 nM; in test [2], 0.9 nM.
In the same order, the values of `Cn1cnc2c1CC[C@H]2NC(=O)c1cnn(Cc2ccc(N3CC4C(C3)C4(F)F)nc2Cl)c1` (stereo partly drawn) [Example 44, 1-[(2-Chloro-6-{6,6-difluoro-3-azabicyclo-[3.1.0]hexan-3-yl}pyridin-3-yl)methyl]-N-[(4R)-1-methyl-1H,4H,5H,6H-cyclopenta[d]imidazol-4-yl]-1H-pyrazole-4-carboxamide] are 444 nM and 1.8 nM.
In the same order, the values of `Cn1cnc2c1CC[C@H]2NC(=O)c1cn(Cc2ccc(N3CC4C(C3)C4(F)F)nc2C(F)F)cn1` (stereo partly drawn) [Example 45, 1-[(6-{6,6-Difluoro-3-azabicyclo[3.1.0]hexan-3-yl}-2-(difluoromethyl)pyridin-3-yl)methyl]-N-[(4R)-1-methyl-1H,4H,5H,6H-cyclopenta-[d]imidazol-4-yl]-1H-imidazole-4-carboxamide] are 151 nM and 0.7 nM.
For the compound `Cn1cnc2c1CC[C@H]2NC(=O)c1cnn(Cc2ccc(N3CC4C(C3)C4(F)F)nc2C(F)F)c1` (stereo partly drawn) [Example 46, 1-[(6-{6,6-Difluoro-3-azabicyclo[3.1.0]hexan-3-yl}-2-(difluoromethyl)pyridin-3-yl)methyl]-N-[(4R)-1-methyl-1H,4H,5H,6H-cyclopenta-[d]imidazol-4-yl]-1H-pyrazole-4-carboxamide], the IC50 was 162 nM in test [1] and 1 nM in test [2].
Taken in the same sequence, the figures for `Cn1cnc2c1CC[C@H]2NC(=O)c1cnn(Cc2ccc(N3CC4CC4C3)nc2C(F)F)c1` (stereo partly drawn) [Example 48, 1-[(6-{3-Azabicyclo[3.1.0]hexan-3-yl}-2-(difluoromethyl)-pyridin-3-yl)methyl]-N-[(4R)-1-methyl-1H,4H,5H,6H-cyclopenta[d]imidazol-4-yl]-1H-pyrazole-4-carboxamide] were 612 nM and 2.8 nM.
In the same order, the values of `Cn1cnc2c1CC[C@H]2NC(=O)c1cn(Cc2ccc(N3CC4C(C3)C4(F)F)nc2CO)nn1` (stereo partly drawn) [Example 50, 1-[(6-{6,6-Difluoro-3-azabicyclo[3.1.0]hexan-3-yl}-2-(hydroxymethyl)pyridin-3-yl)methyl]-N-[(4R)-1-methyl-1H,4H,5H,6H-cyclopenta[d]-imidazol-4-yl]-1H-1,2,3-triazole-4-carboxamide] are 110 nM and 1.7 nM.
